Laboratory results from publication PMC5433425 (PeerJ, 2017).
Where “and” joins values, the source holds several entries; their conditions need not be identical. Equal values may be shown once. Read-outs that look alike come from different tables or passages of the source. Peptide text beside a SMILES is read from it. * marks the point of attachment. βNA = c1ccc2cc(N*)ccc2c1

Columns and labels:
[1] = tested on: E. coli AG100A (AcrAB pump-deficient); assay: MIC, broth microdilution; format: cell-based, Escherichia coli; conditions: Escherichia coli
[2] = tested on: E. coli AG100tet (AcrAB overexpressing); assay: MIC, broth microdilution; format: cell-based, Escherichia coli; conditions: Escherichia coli
E. coli AG100tet = assay: microbe, parasite or virus in culture; format: cell-based, Escherichia coli; conditions: for MIC: Escherichia coli, AG100TET
Description: The assays were performed in triplicate and the MIC value was given as result of at least two concordant values.

E. coli AG100A = conditions: EtBr […] + inhibitor 20 µM
E. coli AG100 = assay: EtBr efflux by real-time fluorometry; conditions: for EtBr fluorescence (Channel Cycling A.530/585hp): 80 µM
Description: Control tubes with only cells and cells with and without 0.4% glucose were included. The fluorescence was measured in a Rotor-Gene 3000 and the data was acquired every 30 s for 30 min at 37 °C. The efflux activity was quantified by comparing the fluorescence data obtained under conditions that promote efflux (presence of glucose and absence of efflux inhibitor) with the data from the control in which the bacteria are under conditions of no efflux (presence of an inhibitor and no energy source).

`NC(N)=NCCC[C@H](NC(=O)[C@@H](N)Cc1ccccc1)C(=O)Nc1ccc2ccccc2c1` [PAβN] (H-Phe-Arg-βNA) was tested, and the MIC [1] was 50 µg/mL and 96.3 µM, the MIC [2] was > 200 µg/mL and > 385 µM and the “decrease in EtBr MIC” value (E. coli AG100tet; AG100tet (AcrAB-overexpressing strain)) was 128 fold. The MIC (E. coli AG100tet; read-out: MIC of EtBr in presence of the efflux inhibitor, AG100tet, inhibitor 40 μM) was 256 µg/mL, the MIC (E. coli AG100tet; read-out: MIC of EtBr in presence of the efflux inhibitor, AG100tet, inhibitor 80 μM) was 128 µg/mL and the MIC (E. coli AG100tet; read-out: MIC of EtBr in presence of the efflux inhibitor, AG100tet, inhibitor 160 μM) was 4 µg/mL. The MIC (E. coli AG100tet; read-out: MIC of OFX in presence of the efflux inhibitor, AG100tet, inhibitor 40 μM) was 0.06 µg/mL, the MIC (E. coli AG100tet; read-out: MIC of OFX in presence of the efflux inhibitor, AG100tet, inhibitor 80 μM) was 0.03 µg/mL and the MIC (E. coli AG100tet; read-out: MIC of OFX in presence of the efflux inhibitor, AG100tet, inhibitor 160 μM) was 0.03 µg/mL. The MIC (E. coli AG100tet; read-out: MIC of OXA in presence of the efflux inhibitor, AG100tet, inhibitor 40 μM) was 256 µg/mL, the MIC (E. coli AG100tet; read-out: MIC of OXA in presence of the efflux inhibitor, AG100tet, inhibitor 80 μM) was 256 µg/mL and the MIC (E. coli AG100tet; read-out: MIC of OXA in presence of the efflux inhibitor, AG100tet, inhibitor 160 μM) was 64 µg/mL. It also gave an MIC (E. coli AG100tet; read-out: MIC of TET in presence of the efflux inhibitor, AG100tet, inhibitor 40 μM) of 8 µg/mL, an MIC (E. coli AG100tet; read-out: MIC of TET in presence of the efflux inhibitor, AG100tet, inhibitor 80 μM) of 4 µg/mL and an MIC (E. coli AG100tet; read-out: MIC of TET in presence of the efflux inhibitor, AG100tet, inhibitor 160 μM) of 2 µg/mL. It also gave an EtBr fluorescence (E. coli AG100A; cycle 1) of 2.806, an EtBr fluorescence (E. coli AG100A; cycle 2) of 3.199 and an EtBr fluorescence (E. coli AG100A; cycle 3) of 3.493. It also gave an EtBr fluorescence (E. coli AG100A; cycle 4) of 3.706, an EtBr fluorescence (E. coli AG100A; cycle 5) of 3.997 and an EtBr fluorescence (E. coli AG100A; cycle 6) of 4.263. It also gave an EtBr fluorescence (E. coli AG100A; cycle 7) of 4.462, an EtBr fluorescence (E. coli AG100A; cycle 8) of 4.698 and an EtBr fluorescence (E. coli AG100A; cycle 9) of 5.01. For the same molecule, the EtBr fluorescence (E. coli AG100A; cycle 10) was 5.162, the EtBr fluorescence (E. coli AG100A; cycle 11) was 5.32 and the EtBr fluorescence (E. coli AG100A; cycle 12) was 5.607. It also gave an EtBr fluorescence (E. coli AG100A; cycle 13) of 5.848, an EtBr fluorescence (E. coli AG100A; cycle 14) of 6.013 and an EtBr fluorescence (E. coli AG100A; cycle 15) of 6.228. It also gave an EtBr fluorescence (E. coli AG100A; cycle 16) of 6.479, an EtBr fluorescence (E. coli AG100A; cycle 17) of 6.607 and an EtBr fluorescence (E. coli AG100A; cycle 18) of 6.927. The EtBr fluorescence (E. coli AG100A; cycle 19) was 6.923, the EtBr fluorescence (E. coli AG100A; cycle 20) was 7.2698 and the EtBr fluorescence (E. coli AG100A; cycle 21) was 7.508. For the same molecule, the EtBr fluorescence (E. coli AG100A; cycle 22) was 7.627, the EtBr fluorescence (E. coli AG100A; cycle 23) was 7.913 and the EtBr fluorescence (E. coli AG100A; cycle 24) was 7.996. For the same molecule, the EtBr fluorescence (E. coli AG100A; cycle 25) was 8.302, the EtBr fluorescence (E. coli AG100A; cycle 26) was 8.33 and the EtBr fluorescence (E. coli AG100A; cycle 27) was 8.55. It also gave an EtBr fluorescence (E. coli AG100A; cycle 28) of 8.862, an EtBr fluorescence (E. coli AG100A; cycle 29) of 8.894 and an EtBr fluorescence (E. coli AG100A; cycle 30) of 9.1148. For the same molecule, the “inhibition of EtBr efflux” value (E. coli AG100; AG100, AG100A and AG100tet (Fig. 2), 80 μM (20 μM for AG100A), glucose, 37 °C) was “to a lesser extent”, the “EtBr fluorescence (Channel Cycling A.530/585hp)” value (E. coli AG100; cycle 1, + glucose) was 2.175 and the “EtBr fluorescence (Channel Cycling A.530/585hp)” value (E. coli AG100; cycle 1, without glucose) was 1.796. For the same molecule, the “EtBr fluorescence (Channel Cycling A.530/585hp)” value (E. coli AG100; cycle 2, + glucose) was 1.889, the “EtBr fluorescence (Channel Cycling A.530/585hp)” value (E. coli AG100; cycle 2, without glucose) was 1.72 and the “EtBr fluorescence (Channel Cycling A.530/585hp)” value (E. coli AG100; cycle 3, + glucose) was 1.756. For the same molecule, the “EtBr fluorescence (Channel Cycling A.530/585hp)” value (E. coli AG100; cycle 3, without glucose) was 1.635, the “EtBr fluorescence (Channel Cycling A.530/585hp)” value (E. coli AG100; cycle 4, without glucose) was 1.556 and the “EtBr fluorescence (Channel Cycling A.530/585hp)” value (E. coli AG100; cycle 5, without glucose) was 1.502. The “EtBr fluorescence (Channel Cycling A.530/585hp)” value (E. coli AG100; cycle 6, without glucose) was 1.4519, the “EtBr fluorescence (Channel Cycling A.530/585hp)” value (E. coli AG100; cycle 7, without glucose) was 1.472 and the “EtBr fluorescence (Channel Cycling A.530/585hp)” value (E. coli AG100; cycle 8, without glucose) was 1.378. For the same molecule, the “EtBr fluorescence (Channel Cycling A.530/585hp)” value (E. coli AG100; cycle 9, + glucose) was 1.339, the “EtBr fluorescence (Channel Cycling A.530/585hp)” value (E. coli AG100; cycle 9, without glucose) was 1.359 and the “EtBr fluorescence (Channel Cycling A.530/585hp)” value (E. coli AG100; cycle 10, + glucose) was 1.264. For the same molecule, the “EtBr fluorescence (Channel Cycling A.530/585hp)” value (E. coli AG100; cycle 10, without glucose) was 1.368, the “EtBr fluorescence (Channel Cycling A.530/585hp)” value (E. coli AG100; cycle 11, + glucose) was 1.2447 and the “EtBr fluorescence (Channel Cycling A.530/585hp)” value (E. coli AG100; cycle 11, without glucose) was 1.355. For the same molecule, the “EtBr fluorescence (Channel Cycling A.530/585hp)” value (E. coli AG100; cycle 12, + glucose) was 1.251, the “EtBr fluorescence (Channel Cycling A.530/585hp)” value (E. coli AG100; cycle 12, without glucose) was 1.312 and the “EtBr fluorescence (Channel Cycling A.530/585hp)” value (E. coli AG100; cycle 13, + glucose) was 1.259. The “EtBr fluorescence (Channel Cycling A.530/585hp)” value (E. coli AG100; cycle 13, without glucose) was 1.3469, the “EtBr fluorescence (Channel Cycling A.530/585hp)” value (E. coli AG100; cycle 14, + glucose) was 1.222 and the “EtBr fluorescence (Channel Cycling A.530/585hp)” value (E. coli AG100; cycle 14, without glucose) was 1.257. For the same molecule, the “EtBr fluorescence (Channel Cycling A.530/585hp)” value (E. coli AG100; cycle 15, + glucose) was 1.22, the “EtBr fluorescence (Channel Cycling A.530/585hp)” value (E. coli AG100; cycle 15, without glucose) was 1.235 and the “EtBr fluorescence (Channel Cycling A.530/585hp)” value (E. coli AG100; cycle 16, + glucose) was 1.167. For the same molecule, the “EtBr fluorescence (Channel Cycling A.530/585hp)” value (E. coli AG100; cycle 16, without glucose) was 1.232 and the “EtBr fluorescence (Channel Cycling A.530/585hp)” value (E. coli AG100; cycle 17, + glucose) was 1.194.
